Assay results taken from PubChem BioAssay (NCI).
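Dose response: 5 concentrations. Exposure: 48 h. Format: 96-well plates. Endpoint: linear interpolation; highest concentration if not reached. The concentration for full growth arrest is given as TGI.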 Where a SMILES comes first, the peptide text is derived from it. The star is where a group is joined. Boc = CC(C)(C)OC(=O)*; Bn = c1ccc(C*)cc1

Experiments:
Experiment in all cases: inhibition of tumour cell growth, NCI panel, 48 h
[1] = tested on: HOP-92 NSCLC
[2] = tested on: UACC-257 melanoma
[3] = tested on: DU-145 prostate
[4] = tested on: MDA-MB-435
[5] = tested on: MALME-3M melanoma
[6] = tested on: HCC-2998 colon
[7] = tested on: SK-MEL-2 melanoma
[8] = tested on: EKVX NSCLC
[9] = tested on: BT-549 breast
[10] = tested on: SF-268 CNS
[11] = tested on: A498 renal

Structure (SMILES) | TGI [1] [µM] | TGI [2] [µM] | TGI [3] [µM] | TGI [4] [µM] | TGI [5] [µM] | TGI [6] [µM] | TGI [7] [µM] | TGI [8] [µM] | TGI [9] [µM] | TGI [10] [µM] | TGI [11] [µM]
O=C(N/N=C(\c1ccccc1)c1ccccn1)NC1CCCCC1 | > 100 | > 100 | > 100 | > 100 | > 100 | > 100 | > 100 | > 100 | > 100 | > 100 | 
Cc1ccc(-c2c(C#N)c(-c3ccc(C)cc3)n(NS(=O)(=O)c3ccccc3)c(=O)c2C#N)cc1 | > 100 | > 100 |  | > 100 | > 100 | > 100 | > 100 | > 100 | > 100 | > 100 | > 100
CN1CCc2c([nH]c3ccccc23)C1 |  | > 100 | > 100 | > 100 | 86.8 | > 100 | > 100 | > 100 | > 100 | > 100 | 
COC(=O)C(CC(C)C)NC(=O)C(C)NC(=O)C(Cc1ccc(OCc2ccccc2)cc1)NC(=O)C(COCc1ccccc1)NC(=O)OC(C)(C)C (centres undefined) (Boc-S(Bn)Y(Bn)AL-OMe; configuration not given here) | > 100 |  | > 100 | > 100 | > 100 |  |  | > 100 | > 100 | > 100 | 
Cc1ccc2c(c1)C(=S)N1CSCC1c1nncn1-2 (centres undefined) |  | > 100 | > 100 | > 100 | > 100 | > 100 | > 100 | > 100 | > 100 | > 100 | > 100
C=CCCON(C(=O)OC(C)(C)C)C(C)(C)C | > 100 | > 100 | > 100 | > 100 | > 100 |  | > 100 | > 100 | > 100 | > 100 | > 100
O=C(O)C(O)C(O)C(O)C(O)c1nc2ccccc2s1 (centres undefined) | 40.1 | 30.9 | 31.2 | 31.8 | 36.7 |  | 36.5 | 35.8 | 63.2 | 29 | 63.7
c1ccc(N=C(N2CCCC2)N(CCN2CCCC2)c2ccccc2)cc1 | > 100 | 67.6 |  | > 100 | > 100 |  | > 100 | > 100 | 84.5 |  | 
CC1(C)[C@@H](Cn2ccc(=O)[nH]c2=O)CC[C@@]1(C)CO | > 100 | > 100 | > 100 | > 100 |  | > 100 | > 100 | > 100 |  | > 100 | > 100
CCO/C(O)=C(/C(=N)N1CCOCC1)C(=O)Nc1ccc(F)cc1 |  | > 100 | > 100 | > 100 | > 100 | > 100 | > 100 | > 100 | > 100 | > 100 | > 100
O=C(Nc1ccccc1)c1cc(S(=O)(=O)NC2=NC(c3ccccc3)c3cc(Cl)ccc3N2)c(SSc2cc(Cl)c(C(=O)Nc3ccccc3)cc2S(=O)(=O)NC2=NC(c3ccccc3)c3cc(Cl)ccc3N2)cc1Cl (centres undefined) | > 100 | > 100 | > 100 | > 100 | > 100 | > 100 | > 100 | > 100 | > 100 | > 100 | 
Cn1c(=O)c2c(ncn2CCNC(CO)C(O)c2ccc([N+](=O)[O-])cc2)n(C)c1=O (centres undefined) | > 100 | > 100 |  | > 100 | > 100 |  | > 100 | > 100 | > 100 | > 100 | > 100
O=C1C2SC34c5c2c2ccccc2n5CCC3CCCN14 (centres undefined) | > 100 | 95.5 | > 100 | > 100 | > 100 |  | > 100 | > 100 | > 100 | > 100 | > 100
O=C1c2ccccc2C(=O)c2c(NCC(O)CO)ccc(NCC(O)CO)c21 (centres undefined) |  | > 100 | > 100 | > 100 | > 100 | > 100 | 94.8 | > 100 | > 100 | > 100 | > 100
COC[C@@H](N=CC(C)(C)C)C(C)C | > 100 | > 100 | > 100 | > 100 | > 100 | > 100 | > 100 | > 100 |  | > 100 | > 100
CO[C@@]12C[C@@H](C)C3=CCC(C)=C3CC1=C(C)C(=O)O2 | > 100 | > 100 |  | > 100 | > 100 | > 100 | > 100 | > 100 | > 100 | > 100 | > 100
Fc1ccc2c(c1)nc1n2C(c2c(Cl)cccc2Cl)SC1 (centres undefined) | 20 | 34.3 | 30.6 | 25 | 25.6 | 29.9 | 29.7 |  | 30.5 | 29.6 | 35.4
COC(=O)c1c(O)ccc2c1c1c(n2Cc2cc(OC)cc(OC)c2)C(=O)c2ccccc2C1 |  | > 100 | > 100 | 61.7 | > 100 |  | > 100 |  | > 100 | > 100 | > 100
COc1cccc(C(=O)Oc2ccc(OS(=O)(=O)c3ccc(C)cc3)cc2)c1C#N | > 100 | 96.6 | > 100 | > 100 | > 100 |  | > 100 | > 100 |  | > 100 | 
NC(N)=NCCN1CC2CCC(CC2)C1 | > 100 | > 100 | > 100 | > 100 | > 100 | > 100 | > 100 | > 100 |  | > 100 | > 100
CC1(C)/C(=N\NC(N)=O)C2CCC1C2 (centres undefined) | > 100 | > 100 | > 100 | > 100 | > 100 |  | > 100 | > 100 | > 100 | > 100 | 
O=C1COc2cccnc2N1CCCCO | > 100 | > 100 | > 100 | > 100 |  |  | > 100 | > 100 | > 100 |  | > 100
